Results taken from patent US20100022604A1, “PROPHYLACTIC OR THERAPEUTIC AGENT FOR ALOPECIA” (TAISHO PHARMACEUTICAL CO., LTD., priority 2006, published 2010).

Test system: C57BL mice, shaved dorsal area (hair growth)
Assay: Hair growth stimulatory effect measurement test in shaved mouse model
Type: in vivo
Procedure: Hair Growth Stimulatory Effect Measurement Test in Shaved Mouse Model
Dorsal hair of each of C57BL mice (female, about 7-week old) was shaved, and 200 μL of each of test compounds (90 mM) dissolved into 99% ethanol was applied to the shaved area once a day for 40 days from the day 3 after the shaving. As the evaluated compounds, the compound of the present invention and the compound (GPI-1511) disclosed in International Publication No. WO98/55090 were used. As a control, a group in which 200 μL of the vehicle was applied was used.
A hair growth state of the shaved area of each of 10 to 12 mice of each group was rated every 2 or 3 days after the start of administration by using the following hair growth score criteria.
(Hair Growth Score Criteria)
2=hair growth in less than 30% of shaved area
3=hair growth in 30% or more and less than 60% of shaved area
4=hair growth in 60% or more and less than 90% of shaved area
5=hair growth in 90% or more of shaved area

## COc1ccc(OCc2nc([C@@H]3CCCN3C(=O)C(F)(F)C3(O)CC(C)(C)CC(C)(C)C3)no2)cc1OC [compound of the present invention, 1-[2-((2S)-2-{5-[(3,4-dimethoxyphenoxy)methyl]-1,2,4-oxadiazol-3-yl}pyrrolidin-1-yl)-1,1-difluoro-2-oxoethyl]-3,3,5,5-tetramethylcyclohexanol]
18 μmol topical once a day, from day 19 of administration
  increase in hair growth score from the day 19 of the administration: remarkable
18 μmol topical once a day, over the whole test period
  hair growth score compared to the group with GPI-1511: higher than that of the group with GPI-1511 over the whole test period
female, 18 μmol (200 μL of 90 mM in 99% ethanol) applied to the shaved area once a day for 40 days, score 1-5, FIG. 1
  hair growth score compared to the vehicle (control) group: an increase in hair growth score was exhibited from an early stage
